Converted amounts (≈) assume the structure as drawn. The source made the active and inactive calls. No cut-off for these calls is given here.
What was measured:
[1] = test system: Transthyretin (Homo sapiens), P02766 [V50M]; assay: Inhibition of acid mediated TTR V30M mutant aggregation (unknown origin) expressed in Escherichia coli preincubated for 30 mins followed by acid stimulation and measured after 96 hrs by fluorescence spectrophotometer analysis; settings: time 96.5 hrs
[2] = molecular target: Transthyretin (Homo sapiens) (UniProt P02766); assay: Displacement of (E)-S-phenyl 3(4-hydroxy-3,5-dimethylstyryl)benzothioate from human plasma TTR at 20 uM incubated for 6 hrs by fluorescence based assay; format: cell-free
[3] = molecular target: Transthyretin (Homo sapiens, UniProt P02766, V50M); assay: Binding affinity to TTR V30M mutant (unknown origin) expressed in Escherichia coli by ITC assay
[4] = test system: Transthyretin (Homo sapiens), P02766 [V50M]; assay: Binding affinity to TTR V30M mutant (unknown origin) expressed in Escherichia coli assessed as gibbs free energy change by ITC assay
[5] = test system: Transthyretin (Homo sapiens), P02766 [V50M]; assay: Binding affinity to TTR V30M mutant (unknown origin) expressed in Escherichia coli assessed as change in enthalpy by ITC assay
[6] = test system: Transthyretin (Homo sapiens), P02766 [V50M]; assay: Binding affinity to TTR V30M mutant (unknown origin) expressed in Escherichia coli assessed as change in entropy by ITC assay
[7] = Aqueous solubility of compound at pH 1.2 incubated for 4 hrs; format: physicochemical; settings: aqueous medium
[8] = Aqueous solubility of compound at pH 6.8 incubated for 4 hrs; format: physicochemical; settings: aqueous medium
[9] = Permeability of compound at 10 uM after 4 hrs by LC-MS/MS based PAMPA; format: ADME; settings: read-out: permeability
[10] = Plasma protein binding in rat assessed as unbound fraction at 1 uM incubated for 4 hrs by rapid equilibrium dialysis method; format: ADME, cell-free
[11] = Drug concentration in Sprague-Dawley rat plasma at 1 mg/kg, iv after 8 hrs by LC-MS/MS anlaysis; format: ADME, organism-based
[12] = Drug concentration in Sprague-Dawley rat plasma at 1 mg/kg, po after 8 hrs by LC-MS/MS anlaysis; format: ADME, organism-based
[13] = Drug concentration in Sprague-Dawley rat eye ball at 1 mg/kg, iv after 8 hrs by LC-MS/MS anlaysis; format: ADME, organism-based, Eyeball of camera-type eye; settings: read-out: Ct
[14] = Drug concentration in Sprague-Dawley rat eye ball at 1 mg/kg, po after 8 hrs by LC-MS/MS anlaysis; format: ADME, organism-based, Eyeball of camera-type eye; settings: read-out: Ct
[15] = Drug concentration in Sprague-Dawley rat brain at 1 mg/kg, iv after 8 hrs by LC-MS/MS anlaysis; format: ADME, organism-based; settings: read-out: Ct
[16] = Drug concentration in Sprague-Dawley rat brain at 1 mg/kg, po after 8 hrs by LC-MS/MS anlaysis; format: ADME, organism-based; settings: read-out: Ct
[17] = Ratio of drug concentration in Sprague-Dawley rat eye ball to plasma at 1 mg/kg, iv after 8 hrs by LC-MS/MS analysis; format: ADME, organism-based
[18] = Ratio of drug concentration in Sprague-Dawley rat eye ball to plasma at 1 mg/kg, po after 8 hrs by LC-MS/MS analysis; format: ADME, organism-based
[19] = Ratio of drug concentration in Sprague-Dawley rat brain to plasma at 1 mg/kg, iv after 8 hrs by LC-MS/MS analysis; format: ADME, organism-based
[20] = Ratio of drug concentration in Sprague-Dawley rat brain to plasma at 1 mg/kg, po after 8 hrs by LC-MS/MS analysis; format: ADME, organism-based
[21] = Drug concentration in rat plasma at 1.82 mg/kg, po; format: ADME, organism-based; settings: in vivo

| SMILES | IC50 [1] [µM] | Activity [2] | Kd [3] [µM] | deltaG [4] [kcal/mol] | deltaH [5] [kcal/mol] | TdeltaS [6] [kcal/mol] | also measured |
| --- | --- | --- | --- | --- | --- | --- | --- |
| O=C1CC(c2ccc(O)c(Cl)c2)Oc2ccc(O)cc21 (stereo not given) | 5.9 |  |  |  |  |  |  |
| O=C1CC(c2ccc(O)c(Cl)c2)Oc2cc(O)cc(O)c21 (stereo not given) | 5.3 | Active | 0.403 | -8.73 | -13.2 | 4.47 |  |
| O=C1CC(c2ccc(O)c(Cl)c2)Oc2cc(O)ccc21 (stereo not given) | 6 |  |  |  |  |  |  |
| O=C1CC(c2cc(Cl)c(O)c(Cl)c2)Oc2ccc(O)cc21 (stereo not given) | 4.3 |  |  |  |  |  |  |
| O=C1CC(c2cc(Cl)c(O)c(Cl)c2)Oc2cc(O)cc(O)c21 (stereo not given) | 3.7 | Active | 0.016 | -10.7 | -16.7 | 6 | solubility at 4 h [7]: 0.66 µM (≈ 0.225 µg/mL); solubility at 4 h [8]: 28.3 µM (≈ 9.65 µg/mL); Papp at 4 h, 10 µM [9]: > 50 ×10⁻⁶ cm/s; Fu [10]: 0.081%; concentration at 8 h [11]: 717 nM; concentration at 8 h [12]: 267 nM; concentration at 8 h [13]: 150 nM; concentration at 8 h [14]: 37.1 nM; concentration at 8 h [15]: 53.1 nM; concentration at 8 h [16]: 15.6 nM; Kp at 8 h [17]: 0.209; Kp at 8 h [18]: 0.139; Kp at 8 h [19]: 0.074; Kp at 8 h [20]: 0.058 |
| O=C1C[C@@H](c2ccc(O)cc2)Oc2cc(O)cc(O)c21 [NARINGENIN] | 12 |  | 1.63 | -7.9 | -10.9 | 1.32 | concentration [21]: 1500 nM |
| O=C1CC(c2ccc(O)c(Cl)c2)Oc2cccc(O)c21 (stereo not given) | 7.2 |  |  |  |  |  |  |
| O=C1CC(c2cc(Cl)cc(Cl)c2)Oc2cc(O)cc(O)c21 (stereo not given) | 3.8 | Active | 0.006 | -13.6 | -7.42 | -6.17 |  |
| O=C1CC(c2cc(Cl)c(O)c(Cl)c2)Oc2cc(O)ccc21 (stereo not given) | 4.6 | Active | 0.026 | -10.4 | -13.2 | 2.78 |  |
| O=C1CC(c2ccc(Cl)cc2)Oc2cc(O)cc(O)c21 (stereo not given) | 15 |  |  |  |  |  |  |
| O=C1CC(c2cc(Cl)c(O)c(Cl)c2)Oc2cccc(O)c21 (stereo not given) | 3.6 | Active | 0.013 | -10.9 | -8.61 | -2.28 |  |

Reference: ChEMBL document CHEMBL5236616, “Chlorinated Naringenin Analogues as Potential Inhibitors of Transthyretin Amyloidogenesis” (J Med Chem, 2022)
